# From patent US9993449B2, “(S)-3-amino-4-(difluoromethylenyl)cyclopent-1-ene-1-carboxylic acid, and related compounds as GABA aminotransferase inactivators for the treatment of epilepsy, addiction and hepatocellular carcinoma” (NORTHWESTERN UNIVERSITY, priority 2015, dated 2018)
# pIC50: −log10 of the molar value. Structures can show the parent of a compound that is named as a salt.
# Experiments:
# [1] = target: aspartate aminotransferase (Asp-AT); experiment: Inhibition of aspartate aminotransferase; assay type: biochemical; conditions: reversible inhibition
# Experimental: Inhibition of Aspartate Aminotransferase by 1. Microtiter plate wells were loaded with 90 μL of an assay mixture containing 100 mM potassium phosphate at pH 7.4, 5.55 mM α-ketoglutarate, 1.11 mM NADH, 5.55 mM L-aspartate, 11.1 units of malic dehydrogenase, and various concentrations of 1. After incubation of the mixture at room temperature for a few min, 10 μL of Asp-AT (3.0 units/mL in 100 mM potassium phosphate at pH 7.4) was added. The plate was shaken at room temperature for 1 min, and the absorbance was measured at 340 nm every 6 s for 90 min. All assays were performed in duplicate (FIG. 4).
# hERG channel = target: T1, hERG channel (Homo sapiens, UniProt Q12809); experiment: Inhibition of the hERG channel (automated whole-cell patch clamp, hERG CHO-K1 cell line); assay type: cell-based; conditions: 0.1 μM, 1 μM, and 10 μM; 5 min at room temperature
# T1 construct: host or cells: CHO-K1
# T1 sequence (Q12809 whole entry): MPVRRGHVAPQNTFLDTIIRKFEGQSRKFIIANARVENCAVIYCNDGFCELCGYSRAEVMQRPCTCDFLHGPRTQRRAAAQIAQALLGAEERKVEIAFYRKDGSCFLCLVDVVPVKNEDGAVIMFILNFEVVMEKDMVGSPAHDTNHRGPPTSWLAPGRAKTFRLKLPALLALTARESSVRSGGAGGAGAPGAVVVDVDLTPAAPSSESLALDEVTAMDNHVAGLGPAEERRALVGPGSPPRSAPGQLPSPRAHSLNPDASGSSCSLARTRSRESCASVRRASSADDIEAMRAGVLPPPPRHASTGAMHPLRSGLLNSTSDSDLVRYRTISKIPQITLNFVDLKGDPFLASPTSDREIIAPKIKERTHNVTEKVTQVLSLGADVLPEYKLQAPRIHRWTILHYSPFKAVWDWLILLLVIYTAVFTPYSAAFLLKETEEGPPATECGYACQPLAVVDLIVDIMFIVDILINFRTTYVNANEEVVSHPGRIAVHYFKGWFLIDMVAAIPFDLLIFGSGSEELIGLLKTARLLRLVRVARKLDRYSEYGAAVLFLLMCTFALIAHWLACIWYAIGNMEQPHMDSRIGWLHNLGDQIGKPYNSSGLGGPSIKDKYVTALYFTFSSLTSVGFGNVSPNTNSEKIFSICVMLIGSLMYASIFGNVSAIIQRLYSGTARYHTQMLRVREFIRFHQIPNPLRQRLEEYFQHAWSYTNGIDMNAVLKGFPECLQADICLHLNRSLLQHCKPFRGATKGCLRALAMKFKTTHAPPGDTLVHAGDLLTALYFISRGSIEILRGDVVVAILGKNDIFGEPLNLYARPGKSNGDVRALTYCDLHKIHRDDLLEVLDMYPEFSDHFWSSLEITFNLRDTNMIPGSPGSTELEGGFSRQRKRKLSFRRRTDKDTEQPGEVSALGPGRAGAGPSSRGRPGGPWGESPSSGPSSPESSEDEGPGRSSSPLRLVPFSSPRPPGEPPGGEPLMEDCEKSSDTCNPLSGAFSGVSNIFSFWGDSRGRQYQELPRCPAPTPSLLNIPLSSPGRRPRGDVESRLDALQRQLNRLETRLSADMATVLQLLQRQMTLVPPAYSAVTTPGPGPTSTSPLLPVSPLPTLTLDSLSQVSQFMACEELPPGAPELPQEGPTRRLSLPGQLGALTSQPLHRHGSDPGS
# Experimental: Inhibition of the hERG Channel. The experiments were performed by Eurofins Panlabs (Redmond, Wash. 98052, USA). hERG CHO-K1 cell line was used. The test concentrations were 0.1 μM, 1 μM, and 10 μM. The incubation time was 5 min at room temperature, cumulatively. The detection method used an automated whole-cell patch clamp. The experiments were duplicated, and the % inhibition of the tail current was averaged (FIG. 7).
# CYP1A = target: T2, CYP1A (Homo sapiens, UniProt P05177); experiment: CYP1A inhibition (HLM, phenacetin substrate); assay type: in vitro ADME; conditions: 10 μM, 10 min at 37° C.
# T2 construct: tissue Eurofins Panlabs; host or cells: human liver microsomes
# T2 sequence (P05177 1-516): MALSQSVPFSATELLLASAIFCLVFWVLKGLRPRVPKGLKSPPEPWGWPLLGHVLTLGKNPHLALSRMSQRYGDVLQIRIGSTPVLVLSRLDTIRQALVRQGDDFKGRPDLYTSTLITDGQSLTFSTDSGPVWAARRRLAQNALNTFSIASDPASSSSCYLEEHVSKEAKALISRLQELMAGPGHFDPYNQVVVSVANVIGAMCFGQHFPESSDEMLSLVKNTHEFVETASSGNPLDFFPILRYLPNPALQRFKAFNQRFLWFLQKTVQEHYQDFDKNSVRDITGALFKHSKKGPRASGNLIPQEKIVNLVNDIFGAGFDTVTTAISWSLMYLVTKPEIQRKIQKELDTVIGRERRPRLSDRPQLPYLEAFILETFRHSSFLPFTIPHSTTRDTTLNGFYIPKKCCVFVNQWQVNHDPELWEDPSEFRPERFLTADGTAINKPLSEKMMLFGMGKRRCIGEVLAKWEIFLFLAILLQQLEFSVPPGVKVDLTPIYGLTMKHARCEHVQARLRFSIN
# Experimental: (§1) Inhibition of Microsomal Cytochromes P450. The experiments were performed by Eurofins Panlabs (Redmond, Wash. 98052, USA). CYP1A inhibition (HLM, phenacetin substrate), CYP2B6 inhibition (HLM, bupropion substrate), CYP2C8 inhibition (HLM, paclitaxel substrate), CYP2C9 inhibition (HLM, diclofenac substrate), CYP2C19 inhibition (HLM, omeprazole substrate), CYP2D6 inhibition (HLM, dextromethorphan substrate), and CYP3A inhibition (HLM, midazolam and testosterone substrates) were tested. The test concentration was 10 μM. The incubation time was 10 min at 37° C. The detection method was by HPLC-MS/MS. The experiments were duplicated, and the % inhibition of the control values was averaged (FIG. 8).
# CYP2D6 = target: T3, CYP2D6 (Homo sapiens, UniProt P10635); experiment: CYP2D6 inhibition (HLM, dextromethorphan substrate); assay type: in vitro ADME; conditions: 10 μM, 10 min at 37° C.
# T3 construct: tissue Eurofins Panlabs; host or cells: human liver microsomes
# T3 sequence (P10635 whole entry): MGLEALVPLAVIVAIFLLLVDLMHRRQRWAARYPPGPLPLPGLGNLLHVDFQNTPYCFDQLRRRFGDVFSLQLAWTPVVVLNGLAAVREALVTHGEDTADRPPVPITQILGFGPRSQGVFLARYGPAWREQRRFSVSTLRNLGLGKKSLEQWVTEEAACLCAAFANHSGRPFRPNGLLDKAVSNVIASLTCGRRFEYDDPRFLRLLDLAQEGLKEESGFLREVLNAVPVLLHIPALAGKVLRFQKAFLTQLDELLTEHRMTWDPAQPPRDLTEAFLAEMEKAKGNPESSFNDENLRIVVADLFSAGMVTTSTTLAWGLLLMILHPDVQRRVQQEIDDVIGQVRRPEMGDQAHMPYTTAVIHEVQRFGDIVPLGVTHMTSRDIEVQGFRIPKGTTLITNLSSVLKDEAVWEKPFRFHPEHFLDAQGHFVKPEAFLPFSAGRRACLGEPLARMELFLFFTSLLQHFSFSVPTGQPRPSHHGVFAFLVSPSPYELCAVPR
# Experimental: as §1
# Plasma protein binding = assay type: in vitro ADME
# striatal dopamine levels = experiment: MicroPET imaging with 11C-raclopride: cocaine- or nicotine-induced dopamine elevation in freely moving rats; assay type: in vivo, rat
# Experimental: Drug addiction results from the release of dopamine in the NAcc when an addictive substance is ingested. The effect of 1 on the release of dopamine in freely moving rats was determined using in vivo micropositron emission tomography (microPET) imaging (FIG. 10). (Dewey, S. L.; Morgan, A. E.; Ashby, C. R.; Horan, B.; Kushner, S. A.; Logan, J.; Volkow, N. D.; Fowler, J. S.; Gardner, E. L.; Brodie, J. D. Synapse 1998, 30 (2), 119-129). […] MicroPET was used to measure the dissociation of the tracer [^11C]-raclopride from dopamine receptors caused by either cocaine- or nicotine-induced increases in synaptic dopamine levels (the same images were obtained with cocaine and nicotine). When animals received cocaine (n=8) or nicotine (n=6), striatal dopamine levels were rapidly elevated. (Dewey, S. L.; Chaurasia, C. S.; Chen, C. E.; Volkow, N. D.; Clarkson, F. A.; Porter, S. P.; Straughter-Moore, R. M.; Alexoff, D. L.; Tedeschi, D.; Russo, N. B.; Fowler, J. S.; Brodie, J. D. Synapse 1997, 25 (4), 393-398). […] Therefore, 1 blocks both cocaine- and nicotine-induced elevations in dopamine.
# MicroPET imaging. Adult male rats (Sprague-Dawley, 200-250 grams, n =16) were obtained from Taconic Farms. Animals were maintained on a 12/12 light-dark cycle. Scanning was performed using a Siemen's Inveon. All emission scans were corrected for attenuation. Animals received baseline microPET scans using either ^11C-raclopride or ^18FDG as described previously. (Patel, V. D.; Lee, D. E.; Alexoff, D. L.; Dewey, S. L.; Schiffer, W. K. Neuroimage 2008, 41 (3), 1051-1066.) Uptake of both radiotracers occurred while animals were awake and freely moving. Immediately prior to microPET scanning, all animals were anesthetized and maintained under isoflurane.
# [2] = target: T4, ornithine aminotransferase (OAT) (Homo sapiens, UniProt P04181); conditions: read-out: KI for inactivation of OAT
# T4 sequence (P04181 26-439): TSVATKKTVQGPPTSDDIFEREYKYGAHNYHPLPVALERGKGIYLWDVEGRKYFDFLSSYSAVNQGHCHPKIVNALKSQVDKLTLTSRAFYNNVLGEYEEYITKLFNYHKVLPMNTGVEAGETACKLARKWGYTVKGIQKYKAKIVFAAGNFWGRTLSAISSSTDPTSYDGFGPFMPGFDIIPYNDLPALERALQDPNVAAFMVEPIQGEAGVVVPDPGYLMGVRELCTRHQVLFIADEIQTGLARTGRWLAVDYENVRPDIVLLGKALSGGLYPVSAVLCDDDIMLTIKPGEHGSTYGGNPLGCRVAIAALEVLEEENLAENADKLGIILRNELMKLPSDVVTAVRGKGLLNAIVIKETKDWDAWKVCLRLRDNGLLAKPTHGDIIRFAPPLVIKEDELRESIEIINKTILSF
# Experimental: All assays were performed in duplicate, and the remaining OAT activity at each preincubation time at each inhibitor concentration was averaged. The natural logarithm of the percentage of the remaining OAT activity was plotted against the preincubation time at each inhibitor concentration to obtain the kobs (slope) value for each concentration. The kobs is the rate constant describing the inactivation at each inhibitor concentration. kobs is replotted against the inhibitor concentration using nonlinear regression analysis (GraphPad Prism 6™; GraphPad Software Inc.). KI and kinact were estimated from equation (3):
compound,measurement,setting,value
"N[C@H]1C=C(C(=O)O)CC1=C(F)F [Compound 1, (S)-3-Amino-4-(difluoromethylenyl)cyclopent-1-ene-1-carboxylic acid Hydrochloride]",pIC50,[1],< 2.40
same,inhibition of the activity of the hERG channel,hERG channel,does not inhibit
same,inhibition or induction of CYP 1A,CYP1A,does not inhibit or induce
same,inhibition or induction of CYP 2D6,CYP2D6,does not inhibit or induce
same,fraction unbound,Plasma protein binding,0.73
same,"suppressing the release of dopamine in the NAcc following a cocaine or nicotine challenge, compared with CPP-115",striatal dopamine levels,superior to CPP-115
same,cocaine-induced elevations in dopamine,"striatal dopamine levels; 1 given prior to cocaine, 11C-raclopride microPET",blocks
same,nicotine-induced elevations in dopamine,"striatal dopamine levels; 1 given prior to nicotine, 11C-raclopride microPET",blocks
same,KI (inactivation),[2],3.3 µM
